The text below walks through data of patent US8088918B2, “Noncardiotoxic pharmaceutical compounds” (Williamsburg Holdings LLC, priority 2004, dated 2012).

For series [1] the following is noted: parent drugs; cited from earlier work.
Series [2] can be described thus: Metabolic stability, microsomal incubations without inhibitor. Format: in vitro ADME. Particulars: 10 μM, 0.5 mg/mL microsomal protein. Here is the method: (§1) The metabolic stability of each compound prepared in Examples 1-5 was assessed in microsomal preparations obtained from BD Gentest (Woburn, Mass.).
(§2) The metabolic stability of each compound prepared in Examples 1-5 was assessed in duplicate by incubation of 10 μM compound with 0.5 mg/mL microsomal protein, 1 mM in 0.1 M phosphate buffer, pH 7.4 in the presence and absence of a CYP3A4 inhibitor (ketoconazole). The reaction mixture was pre-incubated, in the absence of the microsomes, at ca. 37° C. for 5 minutes, followed by initiation of the incubation by the addition of microsomal protein and maintained at ca. 37° C. for a further 0, 30 and 60 minutes. After the appropriate incubation time, the mixtures were quenched by the addition of one volume of acetonitrile and the supernatant was isolated by centrifugation. Positive control incubations (7-ethoxycoumarin) were performed in the same manner as the compounds from Examples 1-5 and quenched after 0 and 30 minutes. In addition, negative control incubations were performed for 60 minutes in the absence of NADPH to assess chemical stability.
(§3) Analysis of supernatants from each time interval was conducted for each compound prepared in Examples 1-5 by LC-MS analysis. Quantification of the disappearance on the parent drug was achieved by comparison of the sample response to that of a suitable standard curve constructed in 0.1 M phosphate buffer, pH 7.4. The standard curve ranged between ≦1% up to ≧100% of the dosing concentration.
(§4) The % turnover following 60 minutes of incubation was calculated by comparison of the parent concentration to that at 0 minutes. The % degradation was calculated in the same manner from the negative control incubations. Appearance of the parent drug and the hydroxymetabolites were also monitored at each time interval.

Series [3] deals with CYP2D6 (Homo sapiens, UniProt P10635). Nature of the series: Metabolic stability in the presence of CYP2D6 isozyme. Format: in vitro ADME. The arrangement: purchased BD Gentest (Woburn, Mass.). The settings on record: 10 μm compound. Here is the method:
(§5) The metabolic stability of each compound prepared in Examples 1-5 was assessed in the presence of CYP2D6 and CYP3A4 obtained from BD Gentest (Woburn, Mass.).
(§6) The metabolic stability of each compound prepared in Examples 1-5 was assessed in duplicate by incubation of 10 μm compound with recombinant human CYP2D6 and 3A4 using similar conditions to those in Example 9. Samples were removed for analysis at 0, 30 and 60 minutes and extracted with one volume of organic solvent. Appropriate controls were included. Quantification of the disappearance of the prodrug was conducted LC-MS. Appearance of metabolites was also monitored.

Series [4] can be described thus: Stability testing of prodrugs in rat plasma (elevated esterase activity). Format: in vitro ADME, Sprague-Dawley rat. Particulars: 10 μM, ca. 37° C. Here is the method:
Sprague-Dawley rat plasma was obtained by collection into sodium EDTA as the anticoagulant, and was stored at ca −20° C. prior to use. Prior to use, the plasma defrosted and was spun at ca. 3000 rpm for 5 minutes to remove any precipitate. The pH of the plasma was adjusted to pH 7.4 by careful addition of NaH2PO4 buffer.
Plasma stability was assessed by incubation of 10 μM of each compound prepared in Examples 1-5 with rat plasma, in duplicate, at ca. 37° C. with shaking. Each compound prepared in Examples 1-5 was also incubated at 10 μM in PBS as a control for compound heat stability. Aliquots were removed at 0, 0.5, 1 and 2 hours and stored at −20° C. until analysis.
For analysis, plasma samples were extracted in 1 part acetonitrile and isolation of the supernatant. Analysis of each compound prepared in Examples 1-5 in plasma extracts was conducted by an LC-MS method at each time interval and quantification was achieved by comparison of the response due to the sample to that of a three point standard curve. Appearance of the parent drug and the hydroxymetabolites were also monitored at each time interval. The % degradation following incubation at each time point was calculated by comparison of the parent concentration to that at 0 minutes.

The nature of series [5]: Stability testing of prodrugs in human plasma. Format: in vitro ADME. Particulars: 10 μM, ca. 37° C. On the procedure:
Pooled human plasma was obtained from Bioreclamation (East Meadow, N.Y.) by collection into sodium EDTA as the anticoagulant, and was stored at ca −20° C. prior to use. Prior to use, the plasma defrosted and was spun at ca. 3000 rpm for 5 minutes to remove any precipitate. The pH of the plasma was adjusted to pH 7.4 by careful addition of NaH2PO4 buffer.
Plasma stability was assessed by incubation of 10 μM of each compound prepared in Examples 1-5 with human plasma, in duplicate, at ca. 37° C. with shaking. Each compound prepared in Examples 1-5 was also incubated at 10 μM in PBS as a control for compound heat stability. Aliquots were removed at 0, 0.5, 1 and 2 hours and stored at −20° C. until analysis.
For analysis, plasma samples were extracted in 1 part acetonitrile and isolation of the supernatant. Analysis of each compound prepared in Examples 1-5 in plasma extracts was conducted by an LC-MS method at each time interval and quantification was achieved by comparison of the response due to the sample to that of a three point standard curve. Appearance of the parent drug the hydroxymetabolites were also monitored at each time interval. The % degradation following incubation at each time point was calculated by comparison of the parent concentration to that at 0 minutes.

Series [6] has as its target T1, recombinant human CYP3A4 (Homo sapiens, UniProt P08684).
T1 construct: purchased BD Gentest (Woburn, Mass.)
Nature of the series: Metabolic stability in the presence of CYP3A4 isozyme. Format: in vitro ADME. The settings on record: 10 μm compound. Here is the method: as §5, §6

The nature of series [7]: Stability testing in simulated intestinal fluids. The settings on record: 10 μM.
Series [8] is described as follows: Stability testing in simulated gastric fluids. Particulars: 10 μM, saline pH approximately 1 plus pepsin.
A short description of series [9]: Metabolic stability, microsomal incubations with ketoconazole (CYP3A4 inhibitor). Format: in vitro ADME. The settings on record: 10 μM, 0.5 mg/mL microsomal protein. On the procedure:
as §1, §2, §3, §4

T1 sequence (P08684 whole entry): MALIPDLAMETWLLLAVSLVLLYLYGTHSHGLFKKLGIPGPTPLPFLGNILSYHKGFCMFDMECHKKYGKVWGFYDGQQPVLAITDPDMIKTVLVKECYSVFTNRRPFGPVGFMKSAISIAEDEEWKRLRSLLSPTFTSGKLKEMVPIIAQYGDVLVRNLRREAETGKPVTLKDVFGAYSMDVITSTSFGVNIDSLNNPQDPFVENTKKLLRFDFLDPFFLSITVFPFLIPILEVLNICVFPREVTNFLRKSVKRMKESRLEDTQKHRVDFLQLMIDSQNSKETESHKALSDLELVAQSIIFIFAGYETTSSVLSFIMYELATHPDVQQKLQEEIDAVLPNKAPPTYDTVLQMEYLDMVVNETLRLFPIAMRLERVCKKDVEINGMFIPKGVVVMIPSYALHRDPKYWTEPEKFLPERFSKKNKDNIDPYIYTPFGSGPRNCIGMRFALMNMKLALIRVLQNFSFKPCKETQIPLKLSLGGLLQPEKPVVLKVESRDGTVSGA
Chain of CYP2D6 (P10635 whole entry): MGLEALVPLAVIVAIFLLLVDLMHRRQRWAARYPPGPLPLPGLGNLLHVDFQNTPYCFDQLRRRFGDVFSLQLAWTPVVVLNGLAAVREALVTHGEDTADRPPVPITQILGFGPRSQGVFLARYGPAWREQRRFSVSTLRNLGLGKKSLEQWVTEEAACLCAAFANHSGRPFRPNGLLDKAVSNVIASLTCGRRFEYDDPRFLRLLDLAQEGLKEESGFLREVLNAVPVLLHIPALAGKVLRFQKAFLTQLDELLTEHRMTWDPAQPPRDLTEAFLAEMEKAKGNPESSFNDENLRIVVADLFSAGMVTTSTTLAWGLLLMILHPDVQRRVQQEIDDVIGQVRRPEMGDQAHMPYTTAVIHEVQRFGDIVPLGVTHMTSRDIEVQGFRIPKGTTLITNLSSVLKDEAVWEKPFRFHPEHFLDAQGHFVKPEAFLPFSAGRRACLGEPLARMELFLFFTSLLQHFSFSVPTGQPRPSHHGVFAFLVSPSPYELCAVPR

On to `CN(C)CCC=C1c2ccccc2COc2ccccc21` (mixture of isomers) [doxepin, Doxepin], for which, in series [1], the pKa – broadly, the pH at which an ionisable group is half protonated – is given as 8.00.

Take `CCOP(=O)(OCC)N(C)CCCN1c2ccccc2CCc2ccccc21` [RIC-02, [3-(10,11-Dihydro-dibenzo[b,f]azepin-5-yl)-propyl]-methyl-phosphoramidic acid diethyl ester]: the entries for the “Loss of parent compound with no ketoconazole (%)” value in [2] (incubation time 30 min) and in [2] (incubation time 60 min) were 76.17% and 91.40%, respectively. In addition, the “Loss of parent compound with CYP2D6 isozyme (%)” value in [3] (incubation time 0 min) amounted to 0.00%; in series [3] (incubation time 30 min), 13.19%; in series [3] (incubation time 60 min), 37.11%. The “Loss of parent compound in rat plasma (%)” value was determined as 0.00% in [4] (incubation time 0 min), 4.67% in series [4] (incubation time 30 min), 11.01% in series [4] (incubation time 60 min) and 9.02% in series [4] (incubation time 120 min). Moreover, the “Loss of parent compound in human plasma (%)” value in series [5] (incubation time 0 min) is reported as 0.00%; in [5] (incubation time 30 min) it was “−.43%”; in [5] (incubation time 60 min) it was 9.94%; in series [5] (incubation time 120 min) it was 7.93%. Also, the “Loss of parent compound with CYP3A4 isozyme (%)” value was found to be 0.00% in series [6] (incubation time 0 min), 97.05% in series [6] (incubation time 30 min) and 98.62% in [6] (incubation time 60 min). The “Loss of parent compound in simulated intestinal fluid (%)” value in [7] (phosphate pH 6, incubation time 0 min) is 0.00%; in series [7] (phosphate pH 6, incubation time 30 min), 11.65%; in series [7] (phosphate pH 6, incubation time 60 min), 7.83%; in series [7] (phosphate pH 6, incubation time 120 min) it was 9.29%. The “Loss of parent compound in simulated gastric fluid (%)” value in [8] (incubation time 0 min) is on record as 0.00%; in series [8] (incubation time 30 min) it was 49.94%; in series [8] (incubation time 60 min) it was 74.67%; in series [8] (incubation time 120 min), 93.12%. The “Loss of parent compound with ketoconazole (%)” value is recorded as −17.26% in series [9] (incubation time 30 min) and 11.04% in series [9] (incubation time 60 min).

For the compound `CN(C)CCc1c[nH]c2ccc(C[C@H]3COC(=O)N3)cc12` [Zolmitriptan], in series [1], the pKa is given as 9.52.

As for `CNCCC(Oc1ccccc1C)c1ccccc1` (stereo not drawn) [atomoxetine, Atomoxetine], in series [1], the pKa is on record as 10.12.

`CN(C)CCOC(C)(c1ccccc1)c1ccc(Cl)cc1` (stereo not drawn) [chlorphenoxamine, Chlorphenoxamine]: in series [1], the pKa is reported as 8.21.

`COc1cc(N)c(Cl)cc1C(=O)NC1CCN(CCCOc2ccc(F)cc2)CC1OC` (stereo not drawn) [cisapride, Cisapride]: the pKa in [1] is 7.04.

Regarding `CN1CCC[C@@H]1CCO[C@](C)(c1ccccc1)c1ccc(Cl)cc1` [clemastine], in series [1], the pKa was 10.23.

On to `CN(C)CCCN1c2ccccc2CCc2ccc(Cl)cc21` [clomipramine], for which the pKa in series [1] is 9.50.

With `CN1CCN(C2=Nc3cc(Cl)ccc3Nc3ccccc32)CC1` [clozapine, Clozapine], the pKa in [1] is recorded as 8.20.

Turning to `CN1CCN(C(c2ccccc2)c2ccccc2)CC1` [cyclizine], the pKa in series [1] is recorded as 8.35.

For the compound `CN(C)CCC=C1c2ccccc2C=Cc2ccccc21` [cyclobenzaprine, Cyclobenzaprine], in series [1], the pKa is recorded as 9.21.

Turning to `CN1CCC[C@@H]1Cc1c[nH]c2ccc(CCS(=O)(=O)c3ccccc3)cc12` [eletriptan, Eletriptan], the pKa in series [1] is 10.13.

For `CN(C)CCC[C@@]1(c2ccc(F)cc2)OCc2cc(C#N)ccc21` [escitalopram, Escitalopram], the pKa in [1] is 9.60.

As for `COc1ccc(OCC2CN(C)CCC2c2ccccc2)cc1` (stereo not drawn) [femoxetine, Femoxetine], the pKa in series [1] is reported as 9.00.

Take `CN[C@@H]1CCc2[nH]c3ccc(C(N)=O)cc3c2C1` [frovatriptan, Frovatriptan]: the pKa in series [1] is listed as 10.63.

In the case of `CNCCCC12CCC(c3ccccc31)c1ccccc12` [maprotiline], in series [1], the pKa was 10.20.

For `Cc1cccc(CN2CCN(C(c3ccccc3)c3ccc(Cl)cc3)CC2)c1` (stereo not drawn) [meclizine], the pKa in series [1] is given as 7.32.

`COc1c(N2C[C@@H]3CCCN[C@@H]3C2)c(F)cc2c(=O)c(C(=O)O)cn(C3CC3)c12` [moxifloxacin]: the pKa in series [1] was 10.01.

Take `CCc1nn(CCCN2CCN(c3cccc(Cl)c3)CC2)c(=O)n1CCOc1ccccc1` [nefazodone]: in [1], the pKa is on record as 7.90.

On to `COc1cc(N)c(Cl)cc1C(=O)NC1CCNCC1OC` (stereo not drawn) [norcisapride], for which the pKa in series [1] was 8.46.

In the case of `Fc1ccc(-n2cc(C3CCNCC3)c3cc(Cl)ccc32)cc1` [norsertindole], the pKa in [1] is recorded as 10.61.

Take `CC1COc2c(N3CCN(C)CC3)c(F)cc3c(=O)c(C(=O)O)cn1c23` (stereo not drawn) [ofloxacin]: in [1], the pKa is listed as 7.09.

Consider `O=C1NC(=O)C(c2ccccc2)(c2ccccc2)N1` [phenytoin], for which the pKa in [1] is 8.31.

`CC(N)C12CC3CC(CC(C3)C1)C2` (stereo not drawn) [rimantadine]: the pKa in series [1] is 11.70.

As to `CN(C)CCc1c[nH]c2ccc(Cn3cncn3)cc12` [rizatriptan], the pKa in series [1] is on record as 9.49.

For the compound `O=C1NCCN1CCN1CCC(c2cn(-c3ccc(F)cc3)c3ccc(Cl)cc23)CC1` [sertindole, Sertindole], the pKa in series [1] is 9.06.

Consider `CC(C)(C)c1ccc(C(O)CCCN2CCC(C(O)(c3ccccc3)c3ccccc3)CC2)cc1` (stereo not drawn) [terfenadine, Terfenadine], for which the pKa in series [1] is 9.60.

Regarding `CN1CCN(CCCN2c3ccccc3Sc3ccc(C(F)(F)F)cc32)CC1` [trifluoperazine], the pKa in [1] was 7.98.

As to `O=C1Cc2cc(CCN3CCN(c4nsc5ccccc45)CC3)c(Cl)cc2N1` [ziprasidone], the pKa in [1] was 8.24.
